Assay [1] concerns the target T1, IRAK4 (Homo sapiens, UniProt Q9NWZ3).
T1 sequence (Q9NWZ3 1-460): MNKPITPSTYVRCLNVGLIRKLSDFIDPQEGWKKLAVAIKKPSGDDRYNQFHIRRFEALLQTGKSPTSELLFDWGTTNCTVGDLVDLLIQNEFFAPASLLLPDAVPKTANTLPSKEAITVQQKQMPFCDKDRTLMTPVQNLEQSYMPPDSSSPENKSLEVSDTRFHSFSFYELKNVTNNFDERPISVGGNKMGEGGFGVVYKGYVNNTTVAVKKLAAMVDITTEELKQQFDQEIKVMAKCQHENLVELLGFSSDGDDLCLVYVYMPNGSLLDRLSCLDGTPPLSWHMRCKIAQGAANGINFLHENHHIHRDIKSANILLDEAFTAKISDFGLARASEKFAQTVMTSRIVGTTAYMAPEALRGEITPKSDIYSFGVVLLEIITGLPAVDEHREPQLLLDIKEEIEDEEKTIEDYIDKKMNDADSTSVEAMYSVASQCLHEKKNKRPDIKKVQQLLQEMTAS
Description: 2-hour 10 μM ATP Biochemical Assay (MesoScale Detection format; IRAK4 phosphorylation of biotin labeled IRAK1 activation loop peptide). To be noted: IRAK4 MSD BIOCHEMICAL (10 μM ATP) IC50 (μM), 1 nM IRAK4, 2 hours. A digest of the protocol:
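Kinase reaction run 2 h at 10 μM ATP with biotinylated IRAK1 activation-loop peptide, quenched with EDTA. Phospho-peptide captured on streptavidin MSD plates and detected with anti-phosphothreonine rabbit antibody plus Sulfo-Tag anti-rabbit electrochemiluminescence.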

Assay [2] concerns the target T1, IRAK4. Description: 2-hour 1 mM ATP IRAK4 Biochemical assay (as above, but with 100 pM IRAK4 and 1 mM ATP). Conditions: IRAK4 MSD BIOCHEMICAL (1 mM ATP) IC50 (μM), 100 pM IRAK4, 2 hours. Summed up:
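Run with 100 pM IRAK4 and 1 mM ATP for 2 hours, quenched with EDTA pH 8. Phosphorylated biotinylated peptide captured on streptavidin MSD plates and detected with anti-phosphothreonine antibody plus Sulfo-Tag secondary by electrochemiluminescence.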

27 compounds from patent US20220089592A1, “IMIDAZO[1,2-A]PYRIDINYL DERIVATIVES AS IRAK4 INHIBITORS” (priority 2019, published 2022) can be followed below.

As usually defined, the IC50 is the concentration that gives 50% inhibition. A higher IC50 goes with lower potency.

Take `CCOc1cc2nc(C3CCCOC3)cn2cc1NC(=O)c1cccc(C(F)(F)F)n1` (stereo not drawn) [Example 112, N-(7-ethoxy-2-(tetrahydro-2H-pyran-3-yl)imidazo[1,2-a]pyridin-6-yl)-6-(trifluoromethyl)picolinamide]: the IC50 on IRAK4 [1] and against IRAK4 [2] was 0.001 µM each time.
For the compound `CCOc1cc2nc([C@H]3C[C@@H](OC)C3)cn2cc1NC(=O)c1cccc(C(F)F)n1` [Example 115, 6-(difluoromethyl)-N-(7-ethoxy-2-((1s,3s)-3-methoxycyclobutyl)imidazo[1,2-a]pyridin-6-yl)picolinamide], the IC50 against IRAK4 [1] is 0.001 µM; at IRAK4 [2], 0.002 µM.
Take `CCOc1cc2nc(C3CCOCC3)cn2cc1NC(=O)c1cccc(C(F)F)n1` [Example 116, 6-(difluoromethyl)-N-(7-ethoxy-2-(tetrahydro-2H-pyran-4-yl)imidazo[1,2-a]pyridin-6-yl)picolinamide]: the IC50 against IRAK4 [1] and at IRAK4 [2] was 0.001 µM throughout.
On to `CCOc1cc2nc(C3CC3)cn2cc1NC(=O)c1cccc(OC)n1` [Example 117, N-(2-cyclopropyl-7-ethoxyimidazo[1,2-a]pyridin-6-yl)-6-methoxypicolinamide], for which the IC50 amounted to 0.027 µM on IRAK4 [1] and 0.063 µM against IRAK4 [2].
For `CCOc1cc2nc(C3CC3)cn2cc1NC(=O)c1cccc2c1OCC2` [Example 119, N-(2-cyclopropyl-7-ethoxyimidazo[1,2-a]pyridin-6-yl)-2,3-dihydrobenzofuran-7-carboxamide] the same measures were 0.009 µM and 0.021 µM.
The corresponding values for `CCOc1cc2nc(CC3CCOC3)cn2cc1NC(=O)c1ccn(C(C)C)n1` (stereo not drawn) [Example 122, N-(7-ethoxy-2-((tetrahydrofuran-3-yl)methyl)imidazo[1,2-a]pyridin-6-yl)-1-isopropyl-1H-pyrazole-3-carboxamide] are 0.008 µM and 0.003 µM.
On to `CCOc1cc2nc(CC3CCOC3)cn2cc1NC(=O)c1ccn(CC(F)(F)F)n1` (stereo not drawn) [Example 123, N-(7-ethoxy-2-((tetrahydrofuran-3-yl)methyl)imidazo[1,2-a]pyridin-6-yl)-1-(2,2,2-trifluoroethyl)-1H-pyrazole-3-carboxamide], for which the IC50 was determined as 0.008 µM against IRAK4 [1] and 0.014 µM against IRAK4 [2].
For `CCOc1cc2nc(CC3CCOC3)cn2cc1NC(=O)c1ccn(C(F)F)n1` (stereo not drawn) [Example 124, 1-(difluoromethyl)-N-(7-ethoxy-2-((tetrahydrofuran-3-yl)methyl)imidazo[1,2-a]pyridin-6-yl)-1H-pyrazole-3-carboxamide] the same measures were 0.002 µM and 0.002 µM.
Turning to `CCOc1cc2nc(CC3CCOC3)cn2cc1NC(=O)c1ccn(CC(F)F)n1` (stereo not drawn) [Example 125, 1-(2,2-difluoroethyl)-N-(7-ethoxy-2-((tetrahydrofuran-3-yl)methyl)imidazo[1,2-a]pyridin-6-yl)-1H-pyrazole-3-carboxamide], the IC50 at IRAK4 [1] was 0.004 µM; against IRAK4 [2], 0.01 µM.
For `CCOc1cc2nc(C34CC(F)(C3)C4)cn2cc1NC(=O)c1cccc(C(F)F)n1` [Example 127, 6-(difluoromethyl)-N-(7-ethoxy-2-(3-fluorobicyclo[1.1.1]pentan-1-yl)imidazo[1,2-a]pyridin-6-yl)picolinamide], the IC50 against IRAK4 [1] was found to be 0.001 µM; at IRAK4 [2], 0.003 µM.
For `CCOc1cc2nc(C3(OC)CC3)cn2cc1NC(=O)c1cccc(C(F)F)n1` [Example 128, 6-(difluoromethyl)-N-(7-ethoxy-2-(1-methoxycyclopropyl)imidazo[1,2-a]pyridin-6-yl)picolinamide] the same measures were 0.002 µM and 0.007 µM.
As to `CCOc1cc2nc(C34CC(CO)(C3)C4)cn2cc1NC(=O)c1cccc(C(F)F)n1` [Example 130, 6-(difluoromethyl)-N-(7-ethoxy-2-(3-(hydroxymethyl)bicyclo[1.1.1]pentan-1-yl)imidazo[1,2-a]pyridin-6-yl)picolinamide], the IC50 on IRAK4 [1] and against IRAK4 [2] was 0.001 µM in each case.
As to `CCOc1cc2nc(C3CC3)cn2cc1NC(=O)c1cccc(N2CCOCC2)n1` [Example 131, N-(2-cyclopropyl-7-ethoxyimidazo[1,2-a]pyridin-6-yl)-6-morpholinopicolinamide], the values for the IC50 at IRAK4 [1] and against IRAK4 [2] were 0.005 µM and 0.044 µM, respectively.
Take `CCOc1cc2nc(C3CCOCC3)cn2cc1NC(=O)c1cccc(OC)n1` [Example 133, N-(7-ethoxy-2-(tetrahydro-2H-pyran-4-yl)imidazo[1,2-a]pyridin-6-yl)-6-methoxypicolinamide]: the IC50 against IRAK4 [1] is 0.002 µM; against IRAK4 [2] it was 0.004 µM.
Turning to `CCOc1cc2nc(CC3CCOC3)cn2cc1NC(=O)c1cccc(OC)n1` (stereo not drawn) [Example 134, N-(7-ethoxy-2-((tetrahydrofuran-3-yl)methyl)imidazo[1,2-a]pyridin-6-yl)-6-methoxypicolinamide], the figures for the IC50 on IRAK4 [1] and against IRAK4 [2] were 0.002 µM and 0.009 µM, respectively.
Take `CCOc1cc2nc([C@H]3C[C@H](OC(C)C)C3)cn2cc1NC(=O)c1cccc(C(F)F)n1` [Example 135, 6-(difluoromethyl)-N-(7-ethoxy-2-((1r,3r)-3-isopropoxycyclobutyl)imidazo[1,2-a]pyridin-6-yl)picolinamide]: the IC50 was 0.002 µM against IRAK4 [1] and 0.006 µM at IRAK4 [2].
The corresponding values for `CCOc1cc2nc([C@H]3C[C@@H](OC(C)C)C3)cn2cc1NC(=O)c1cccc(C(F)F)n1` [Example 136, 6-(difluoromethyl)-N-(7-ethoxy-2-((1s,3s)-3-isopropoxycyclobutyl)imidazo[1,2-a]pyridin-6-yl)picolinamide] are 0.001 µM and 0.002 µM.
In the case of `CCOc1nc(NC(=O)c2cccc(OC)n2)cn2cc(C3CCOCC3)nc12` [Example 147, N-(8-ethoxy-2-(tetrahydro-2H-pyran-4-yl)imidazo[1,2-a]pyrazin-6-yl)-6-methoxypicolinamide], the IC50 against IRAK4 [1] was 0.011 µM; against IRAK4 [2], 0.051 µM.
The corresponding values for `CCOc1cc2nc(C(F)(F)CCOC)cn2cc1NC(=O)c1cccc(C(F)F)n1` [Example 149, N-(2-(1,1-difluoro-3-methoxypropyl)-7-ethoxyimidazo[1,2-a]pyridin-6-yl)-6-(difluoromethyl)picolinamide] are 0.002 µM and 0.003 µM.
`CCOc1cc2nc(C3CCSC3)cn2cc1NC(=O)c1cccc(C(F)F)n1` (stereo not drawn) [Example 150, 6-(difluoromethyl)-N-(7-ethoxy-2-(tetrahydrothiophen-3-yl)imidazo[1,2-a]pyridin-6-yl)picolinamide]: the IC50 on IRAK4 [1] turned out to be 0.001 µM; against IRAK4 [2], 0.002 µM.
The corresponding values for `CCOc1cc2nc(CC3CCOCC3)cn2cc1NC(=O)c1cccc(C(F)F)n1` [Example 151, 6-(difluoromethyl)-N-(7-ethoxy-2-((tetrahydro-2H-pyran-4-yl)methyl)imidazo[1,2-a]pyridin-6-yl)picolinamide] are 0.001 µM and 0.002 µM.
For `CCOc1cc2nc(C(C)(C)C#N)cn2cc1NC(=O)c1cccc(C(F)F)n1` [Example 152, N-(2-(2-cyanopropan-2-yl)-7-ethoxyimidazo[1,2-a]pyridin-6-yl)-6-(difluoromethyl)picolinamide] the same measures were 0.004 µM and 0.004 µM.
On to `CCOc1cc2nc(C34CC(OC)(C3)C4)cn2cc1NC(=O)c1cccc(C(F)F)n1` [Example 153, 6-(difluoromethyl)-N-(7-ethoxy-2-(3-methoxybicyclo[1.1.1]pentan-1-yl)imidazo[1,2-a]pyridin-6-yl)picolinamide], for which the IC50 at IRAK4 [1] and against IRAK4 [2] was 0.001 µM each time.
Regarding `CCOc1cc2nc(CC3CCOC3)cn2cc1NC(=O)c1ccn(C)n1` (stereo not drawn) [Example 155, N-(7-ethoxy-2-((tetrahydrofuran-3-yl)methyl)imidazo[1,2-a]pyridin-6-yl)-1-methyl-1H-pyrazole-3-carboxamide], the IC50 at IRAK4 [1] stood at 0.005 µM; on IRAK4 [2], 0.016 µM.
Consider `CCOc1cc2nc(C3CCN(C)C3=O)cn2cc1NC(=O)c1cccc(C(F)F)n1` (stereo not drawn) [Example 156, 6-(difluoromethyl)-N-(7-ethoxy-2-(1-methyl-2-oxopyrrolidin-3-yl)imidazo[1,2-a]pyridin-6-yl)picolinamide], for which the IC50 was determined as 0.001 µM against IRAK4 [1] and 0.003 µM on IRAK4 [2].
With `CCOc1cc2nc(CC3CCOC3)cn2cc1NC(=O)c1coc(C)n1` (stereo not drawn) [Example 159, N-(7-ethoxy-2-((tetrahydrofuran-3-yl)methyl)imidazo[1,2-a]pyridin-6-yl)-2-methyloxazole-4-carboxamide], the IC50 on IRAK4 [1] was determined as 0.006 µM; on IRAK4 [2] it was 0.051 µM.
For `CCOc1cc2nc(C3(C#N)CCOCC3)cn2cc1NC(=O)c1cccc(C(F)F)n1` [Example 160, N-(2-(4-cyanotetrahydro-2H-pyran-4-yl)-7-ethoxyimidazo[1,2-a]pyridin-6-yl)-6-(difluoromethyl)picolinamide] the same measures were 0.001 µM and 0.002 µM.
